The values that follow come from US20090170926A1, “Antiviral agents” (Monash Univeristy, priority 2004, published 2009).

Structures are written as SMILES. Where two headings read alike, the source gives them in different places.

In data set [1] the test system is HBV containing mutations associated with resistance to lamivudine (L180M and L180M/M204V in the HBV DNA polymerase) in HepG2 hepatoma cells. Put plainly: HBV core protein level in HepG2 hepatoma cells infected with lamivudine-resistant HBV (non-denaturing Western blot). Format: cell-based, hepatitis B virus. Particulars: day 5, HBV core protein vs controls. Here is the method: Antiviral activity was also examined in HepG2 hepatoma cells infected with HBV containing mutations associated with resistance to lamivudine (3TC). Two cell lines containing an L180M mutation in the HBV DNA polymerase, and a double L180M/M204V mutation were used. Cells were plated out in six well plates and allowed to attach overnight. Next day, the culture medium was replaced with either medium alone or medium containing the desired concentration of antiviral compound. Media was changed for fresh medium with or without antiviral compound on day 3. On day 5, supernatant and cell lysatcs were analysed for levels of HBV core protein by non-denaturing Western blot using an anti-HBV core antibody.
Results for some of the compounds are shown in Table 2 where a 50% reduction or more in measured level of the viral core protein compared to controls at a compound concentration of greater than 50 μmolar is designated +50% core reduction at less than 50 μmolar is designated ++ and 50% core reduction at less than 10 μmolar compound concentration is designated +++.
Background: Immunoblotting shows a protein as a band on a membrane.

In data set [2] the test system is hepatitis B in 2.2.15 human hepatoma cells. Put plainly: Antiviral activity in 2.2.15 human hepatoma cells infected with hepatitis B (viral DNA in supernatant). Particulars: Hepatitis B virus; for EC50: read-out: EC50 (effective concentration for 50% inhibition of the replication of the virus); for EC90: read-out: EC90 (effective concentration for 90% inhibition of the replication of the virus). It is filed as cell-based. As for the experimental part:
Tests of antiviral activity were performed in 2.2.15 human hepatoma cells infected with hepatitis B according to the method of Korba and Gerin, Antiviral Research, 19, 55-70 (1992). Briefly, cells were seeded into 96 well plates and cell media containing various concentrations of the compounds was added. Media was changed daily for 9 days and fresh media containing compound was added each day. On the 10th day, viral DNA in the supernatant was measured and the reduction in the amount of virus in the supernatant was calculated compared to cells incubated without drug. Six separate replicates were performed for each drug concentration. The effective concentration for 50% and 90% inhibition of the replication of the virus was determined from dose response curves.

A short description of a further data set: Solubility in water. Particulars: read-out: solubility in water (fully soluble). Format: physicochemical. As for the experimental part:
The ^1H NMR can also be run in D2O, compound 13 is fully soluble in water at 10 mg/mL

Setting [3] is: 2.2.15 cells, 9 days treatment, viral DNA in supernatant on day 10.

In turn, `Cc1ccc(S(=O)(=O)OC2=C(Br)C(=O)c3c(ccc4c3C=CC(C)(C)O4)C2=O)cc1` displayed a melting point of 167 to 168 °C.

In turn, `Cc1ccc(S(=O)(=O)OC2=C(Br)C(=O)c3c(ccc4c3CCC(C)(C)O4)C2=O)cc1` showed a melting point of 109 to 115 °C.

Regarding `CC1(C)CCc2c(ccc3c2C(=O)C(Cl)=C(Cl)C3=O)O1`, the melting point is 158 to 160 °C.

Take `CC1(C)CCc2c(ccc3c2C(=O)C(Br)=C(O)C3=O)O1` [Compound 5, 9-bromo-8-hydroxy-3,3-dimethyl-1,2-dihydro-3H-naphtho[2,1-b]pyran-7,10-dione]: the melting point lay within 213 to 216 °C. For the same molecule, the “≧50% core reduction” value in data set [1] is on record as “++ (50% core reduction at less than 50 μmolar is designated ++)”.

`CC1(C)C=Cc2c(ccc3c2C(=O)C=C(O)C3=O)O1` [Compound 1, 8-hydroxy-3,3-dimethyl-3H-naphtho[2,1-b]pyran-7,10-dione] yielded a melting point of 208 °C. Also, the “≧50% core reduction” value in data set [1] is recorded as “+++ (50% core reduction at less than 10 μmolar compound concentration is designated +++)”. For the same molecule, in data set [2], the EC50 is 600 nM and the EC90 worked out at 3400 nM.

Turning to `Cc1ccc(S(=O)(=O)OC2=C(Br)C(=O)c3ccc4c(c3C2=O)C=CC(C)(C)O4)cc1`, the melting point lay in the range of 181.5 to 184 °C.

As to `CC1(C)C=Cc2c(ccc3c2C(=O)C(Br)=C(O)C3=O)O1` [Compound 6, 9-Bromo-8-hydroxy-3,3-dimethyl-3H-naphtho[2,1-b]pyran-7,10-dione], in data set [1], the “≧50% core reduction” value is on record as “+ (a 50% reduction or more in measured level of the viral core protein compared to controls at a compound concentration of greater than 50 μmolar is designated +)”.

With `CC1(C)C=Cc2c(ccc3c2C(=O)C=C(O)C3=O)O1` [Compound 13, Sodium 3,3-dimethyl-7,10-dioxo-7,10-dihydro-3H-benzo[f]chromen-8-olate], the “≧50% core reduction” value in data set [1] is listed as “+ (a 50% reduction or more in measured level of the viral core protein compared to controls at a compound concentration of greater than 50 μmolar is designated +)”. Moreover, the solubility in the data set “Solubility in water” was at least 10000 µg/mL.

`Cc1ccc(S(=O)(=O)OC2=C(Br)C(=O)c3ccc4c(c3C2=O)CCC(C)(C)O4)cc1` had a melting point of 168 to 169.5 °C.

As for `CC1(C)CCc2c(ccc3c2C(=O)C=C(O)C3=O)O1` [Compound 2, 8-Hydroxy-3,3-dimethyl-1,2-dihydro-3H-naphtho[2,1-b]pyran-7,10-dione], the melting point fell in the range of 183.5 to 187 °C. Moreover, in data set [2] (setting [3]), the EC50 amounted to 1100 nM and the EC90 turned out to be 1300 nM.

Broadly, the melting point is the temperature of the solid-liquid transition. In general, solubility refers to how much of the substance goes into solution per volume.
